≈ marks a conversion by molar mass, not a printed value. Calls of active or inactive are those of the source. The calls are words filed in the database; no cut-off is given here.
How the values were obtained:
[1] = tested on: Escherichia coli; experiment: Antimicrobial activity against Escherichia coli; assay type: functional
[2] = Induction of dimyristoyl phosphatidylglycerol membrane lysis assessed as calcein leakage at 250 uM to 1 mM by spectrofluorometric analysis; assay type: physicochemical
[3] = Induction of dimyristoyl phosphatidylglycerol membrane lysis assessed as calcein leakage at 1 mM by spectrofluorometric analysis relative to control; assay type: physicochemical; conditions: 1000 µM
[4] = Induction of dimyristoyl phosphatidylethanolamine membrane lysis assessed as calcein leakage at 250 to 500 uM by spectrofluorometric analysis; assay type: physicochemical
[5] = Induction of dimyristoyl phosphatidylglycerol membrane lysis assessed as calcein leakage by spectrofluorometric analysis; assay type: physicochemical
[6] = tested on: Staphylococcus aureus; experiment: Antimicrobial activity against Staphylococcus aureus; assay type: functional
[7] = Destabilization of dimyristoyl phosphatidylethanolamine membrane; assay type: physicochemical
[8] = Induction of dimyristoyl phosphatidylethanolamine membrane lysis assessed as calcein leakage at 1 mM by spectrofluorometric analysis; assay type: physicochemical; conditions: 1000 µM
[9] = Destabilization of dimyristoyl phosphatidylglycerol membrane; assay type: physicochemical
[10] = tested on: Escherichia coli; experiment: Antimicrobial activity against Escherichia coli up to 2 mM; assay type: functional, organism-based
[11] = tested on: Staphylococcus aureus; experiment: Antimicrobial activity against Staphylococcus aureus up to 2 mM; assay type: functional, organism-based

| SMILES | MIC [1] [µM] | Activity [2] | Activity [3] [%] | Activity [4] | Activity [5] | MIC [6] [µM] | Activity [7] | Activity [8] | Activity [9] | Activity [10] | Activity [11] |
| --- | --- | --- | --- | --- | --- | --- | --- | --- | --- | --- | --- |
| CC(C)c1ccccc1N(C)C(=O)N(C)c1cccc(N(C)C(=O)N(C)c2cccc(N(C)C(=O)N(C)c3cccc(N(C)C(=O)N(C)c4ccccc4C(C)C)c3)c2)c1 | 1000 (≈ 811 µg/mL) | Active | 61 | Not Active | Dose-dependent effect | 1000 (≈ 811 µg/mL) | Active | Active | – | – | – |
| CC(C)c1ccccc1N(C)C(=O)N(C)c1ccccc1C(C)C | – | Active | – | Not Active | Dose-dependent effect | – | Not Active | Active | Active | inactive | inactive |
| CC(C)c1ccccc1N(C)C(=O)N(C)c1cccc(N(C)C(=O)N(C)c2cccc(N(C)C(=O)N(C)c3cccc(N(C)C(=O)N(C)c4cccc(N(C)C(=O)N(C)c5cccc(N(C)C(=O)N(C)c6cccc(N(C)C(=O)N(C)c7ccccc7C(C)C)c6)c5)c4)c3)c2)c1 | 1000 (≈ 1300 µg/mL) | Active | 69 | Not Active | Dose-dependent effect | 1000 (≈ 1300 µg/mL) | Active | Active | – | – | – |

— ChEMBL document CHEMBL2375328, “Synthetic oligoureas of metaphenylenediamine mimic host defence peptides in their antimicrobial behaviour” (Bioorg Med Chem Lett, 2013)
